Source: article PMC9061999, “Application of the Adverse Outcome Pathway Concept to In Vitro Nephrotoxicity Assessment: Kidney Injury due to Receptor-Mediated Endocytosis and Lysosomal Overload as a Case Study” (Frontiers in Toxicology, 2022)
Where two headings read alike, the source gives them in different places.

Test system: RPTEC/TERT1 cells
Assay type: cell-based, human
Procedure: For high content imaging, NRK-52E and RPTEC/TERT1 cells were cultivated in µ-clear half well area microtiter plates (Greiner) according to the protocol described for the cytotoxicity assay with slight modification. Briefly, NRK-52E cells were seeded at 5,000 cells in 100 µL growth medium per well and were incubated under standard growth conditions for 48 h prior to treatment. RPTEC/TERT1 cells were seeded at 15,000 cells in 100 µL growth medium per well and incubated under standard growth conditions for 7–8 days, until cells reached confluence and started to differentiate. This was indicated by the formation of three-dimensional structures referred to as domes which were identified by regular microscopic inspection of the plates. Only differentiated cell cultures with detectable domes were assayed. Cells of both cell lines were treated with serially diluted Polymyxin B sulfate (concentration range 7.8 to 2,000 µM) for 1, 2, 4, 6, or up to 24 h. The assay was carried out on three biological replicates defined as three different non-consecutive passages of the cell culture. Each biological replicate at each treatment concentration was assayed in triplicate wells per plate.
Following treatment, cells were stained with two different combinations of fluorescent dyes: NRK-52E cells with 50 pg/μL LysoView™ 633 (Biotium) and 1 µM SYTO 16 (Thermo Scientific), respectively, for lysosomes and nuclei; RPTEC/TERT1 cells with 10 nM LysoTracker™ Red (Thermo Scientific) and 10 ng/μL Hoechst 33342 (Merck-Sigma Aldrich), respectively, for lysosomes and nuclei. For each cell line a staining solution was obtained by mixing the lysosomes and nuclei dyes in cell culture medium at the concentrations indicated above. The cells were stained by replenishing the medium for 100 µL of staining solution per well followed by incubation at 37°C and 5% CO2 for 30 min before imaging.
Images were acquired with a fully automated fluorescence confocal Opera™ QEHS system (PerkinElmer, United Kingdom) using a ×40 air UPlanApo objective (Olympus) with 0.85 numerical aperture. NRK-52E cells stained with the dyes SYTO 16 and LysoView™633 were imaged with the laser lines 488 and 635 nm, using a 488/561/635 nm primary dichroic mirror, a 510 nm long pass (LP) detection dichroic mirror, a 540/75 nm band pass (BP) emission filter for SYTO 16 and a 690/50 nm BP emission filter for LysoView™ 633. RPTEC/TERT1 cells stained with the dyes Hoechst 33342 and LysoTracker™Red were imaged with the laser lines 405 and 561 nm, using a 405/561/635 nm primary dichroic mirror, a 580 nm LP detection dichroic mirror, a 450/50 nm BP emission filter for Hoechst 33342 and a 600/40 nm BP emission filter for LysoTracker™Red. To prevent cross talk of the fluorescent signals, each dye was imaged consecutively using the combination of lasers and filters described above. The settings for laser power, exposure time and focal height were kept constant for each cell line across all the experiments. For NRK-52E cells images were acquired at 25 randomly distributed positions in a well at a single focal plane whereas for RPTEC/TERT1 cells due to the development of dome structures images were acquired at 9 random positions at three focal planes each 1 μm apart.
The images were analyzed by custom-made image analysis scripts either with the imaging analysis software Acapella (version 2.8 PerkinElmer) or Columbus (version 2.4.0 PerkinElmer). The scripts included modules for the identification and counting of the cell nuclei to extrapolate the number of cells per well, for definition of a cytoplasm surrounding the nucleus, for identification and counting of the lysosome vesicles within the cytoplasm. Additional cellular parameters included the nuclei size, intensity, the cell size (cell area), the lysosome size (lysosome area), intensity and the number of lysosomes normalized by the cell area to compensate for difference in size of the cells.

[1] = RPTEC/TERT1, 250 µM, high content imaging

Row | Substance | Effect on lysosomal endpoints in high content screening (RPTEC/TERT1, 24 h, 7.8 to 2000 µM (smaller range for CdCl2 and 4-aminophenol), triplicate experiments, Figure S1) | Treatment time at which nuclear changes were first recorded (RPTEC/TERT1, 125 µM, high content imaging (nuclei area, nuclei intensity)) | Treatment time at which lysosomal effects were measurable (RPTEC/TERT1, 125 µM, high content imaging, three biological replicates in triplicate wells) | Treatment time at which lysosomal effects were measurable [1] | Treatment time at which nuclear changes were first recorded [1] | Cytotoxicity in high content screening (RPTEC/TERT1, 24 h treatment, Figure S1)
1 | Colistin | most prominent effects on lysosomal endpoints | – | – | – | – | –
2 | Polymyxin B | – | 4 h | 1 h | 1 h | 2 h | severe cytotoxicity
